What all share (experiment): KINOMEscan (ScanMAX) kinase profiling
Common to all, as to type: binding

Experiment [1] has as its target T1, panel of 468 kinases (Homo sapiens, UniProt Q00535).
T1 construct: purchased KINOMEscan (ScanMAX) service
The note with it: CDK5; 1 μM; read-out: % control.

The target in experiment [2] is T2, panel of 468 kinases (Homo sapiens, UniProt Q9P2K8, S808G).
T2 construct: purchased KINOMEscan (ScanMAX) service
The conditions noted are these: GCN2(Kin.Dom.2,S808G); 1 μM; read-out: % control.

In experiment [3] the target is T3, panel of 468 kinases (Homo sapiens, UniProt P52333).
T3 construct: purchased KINOMEscan (ScanMAX) service
T3 sequence (P52333 1-1124): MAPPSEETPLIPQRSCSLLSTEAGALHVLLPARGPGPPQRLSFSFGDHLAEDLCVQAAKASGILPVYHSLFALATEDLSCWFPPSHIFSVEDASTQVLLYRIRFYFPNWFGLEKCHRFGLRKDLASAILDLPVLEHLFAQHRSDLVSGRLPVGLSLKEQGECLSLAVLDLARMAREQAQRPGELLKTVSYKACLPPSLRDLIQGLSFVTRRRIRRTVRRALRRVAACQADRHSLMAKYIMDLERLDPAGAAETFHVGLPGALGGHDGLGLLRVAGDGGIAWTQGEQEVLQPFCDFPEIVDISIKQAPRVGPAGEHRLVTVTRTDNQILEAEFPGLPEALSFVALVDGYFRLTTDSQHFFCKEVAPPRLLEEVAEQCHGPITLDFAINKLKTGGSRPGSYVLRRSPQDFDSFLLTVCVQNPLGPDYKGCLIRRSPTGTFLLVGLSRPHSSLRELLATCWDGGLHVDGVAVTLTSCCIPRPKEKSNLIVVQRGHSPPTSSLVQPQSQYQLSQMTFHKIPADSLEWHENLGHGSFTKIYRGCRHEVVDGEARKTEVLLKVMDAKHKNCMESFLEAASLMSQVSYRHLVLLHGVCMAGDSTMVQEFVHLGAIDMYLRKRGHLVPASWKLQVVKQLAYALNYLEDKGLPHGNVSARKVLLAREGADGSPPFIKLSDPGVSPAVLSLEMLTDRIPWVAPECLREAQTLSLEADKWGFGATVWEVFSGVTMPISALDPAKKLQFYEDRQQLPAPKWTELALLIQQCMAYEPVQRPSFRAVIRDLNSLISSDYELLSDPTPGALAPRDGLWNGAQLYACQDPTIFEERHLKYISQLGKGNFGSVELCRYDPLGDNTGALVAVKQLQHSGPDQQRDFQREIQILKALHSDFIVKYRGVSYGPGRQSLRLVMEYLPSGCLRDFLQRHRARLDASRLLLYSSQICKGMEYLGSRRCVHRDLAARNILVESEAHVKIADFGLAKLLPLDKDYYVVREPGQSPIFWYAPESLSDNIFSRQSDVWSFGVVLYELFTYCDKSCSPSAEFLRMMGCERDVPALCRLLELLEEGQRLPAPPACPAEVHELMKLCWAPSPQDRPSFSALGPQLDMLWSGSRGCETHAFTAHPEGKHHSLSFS
The note with it: JAK3(JH1domain-catalytic); 1 μM; read-out: % control.

In experiment [4] the target is T4, panel of 468 kinases (Homo sapiens, UniProt P11309).
T4 construct: purchased KINOMEscan (ScanMAX) service
T4 sequence (P11309 whole entry): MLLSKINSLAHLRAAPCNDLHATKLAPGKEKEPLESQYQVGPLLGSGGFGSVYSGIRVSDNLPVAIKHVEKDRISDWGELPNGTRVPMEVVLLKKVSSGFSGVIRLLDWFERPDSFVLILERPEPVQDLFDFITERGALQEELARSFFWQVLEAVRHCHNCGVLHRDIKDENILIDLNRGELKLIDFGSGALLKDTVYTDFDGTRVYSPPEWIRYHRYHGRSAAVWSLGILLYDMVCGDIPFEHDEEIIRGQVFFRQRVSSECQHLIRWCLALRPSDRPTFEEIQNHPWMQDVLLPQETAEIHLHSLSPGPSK
The conditions noted are these: PIM1; 1 μM; read-out: % control.

The target in experiment [5] is T5, panel of 468 kinases (Homo sapiens, UniProt Q02156).
T5 construct: purchased KINOMEscan (ScanMAX) service
T5 sequence (Q02156 1-737): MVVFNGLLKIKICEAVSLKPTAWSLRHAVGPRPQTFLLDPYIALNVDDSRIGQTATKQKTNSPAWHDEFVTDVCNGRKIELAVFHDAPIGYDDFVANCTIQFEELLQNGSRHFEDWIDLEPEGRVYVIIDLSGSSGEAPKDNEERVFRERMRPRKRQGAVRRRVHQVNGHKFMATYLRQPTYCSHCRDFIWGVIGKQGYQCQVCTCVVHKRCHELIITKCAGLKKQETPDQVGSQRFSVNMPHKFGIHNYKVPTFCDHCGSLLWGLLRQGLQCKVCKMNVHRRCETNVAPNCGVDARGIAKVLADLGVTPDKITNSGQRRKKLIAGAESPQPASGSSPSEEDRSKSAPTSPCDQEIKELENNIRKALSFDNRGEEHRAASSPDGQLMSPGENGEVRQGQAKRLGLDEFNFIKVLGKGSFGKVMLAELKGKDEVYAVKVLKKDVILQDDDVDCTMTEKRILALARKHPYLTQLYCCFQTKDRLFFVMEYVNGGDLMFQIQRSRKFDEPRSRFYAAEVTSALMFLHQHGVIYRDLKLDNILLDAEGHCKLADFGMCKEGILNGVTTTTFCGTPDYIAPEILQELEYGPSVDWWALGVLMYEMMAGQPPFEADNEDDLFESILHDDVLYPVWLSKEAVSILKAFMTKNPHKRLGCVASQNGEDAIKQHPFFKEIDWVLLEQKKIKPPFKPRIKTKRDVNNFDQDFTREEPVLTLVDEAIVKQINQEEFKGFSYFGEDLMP
The note with it: PRKCE; 1 μM; read-out: % control.

Results on three compounds are retold here after patent US12479847B2 (DANA-FARBER CANCER INSTITUTE, INC., priority 2019, dated 2025).

T1 sequence (Q00535 whole entry): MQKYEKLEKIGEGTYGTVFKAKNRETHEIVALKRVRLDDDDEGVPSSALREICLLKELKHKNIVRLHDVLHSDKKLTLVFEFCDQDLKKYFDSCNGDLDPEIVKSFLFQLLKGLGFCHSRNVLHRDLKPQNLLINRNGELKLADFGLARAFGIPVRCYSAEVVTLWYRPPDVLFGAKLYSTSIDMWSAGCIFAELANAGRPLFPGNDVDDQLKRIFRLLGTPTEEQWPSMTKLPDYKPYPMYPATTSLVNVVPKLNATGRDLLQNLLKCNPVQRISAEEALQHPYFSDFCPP
T2 sequence (Q9P2K8 whole entry S808G): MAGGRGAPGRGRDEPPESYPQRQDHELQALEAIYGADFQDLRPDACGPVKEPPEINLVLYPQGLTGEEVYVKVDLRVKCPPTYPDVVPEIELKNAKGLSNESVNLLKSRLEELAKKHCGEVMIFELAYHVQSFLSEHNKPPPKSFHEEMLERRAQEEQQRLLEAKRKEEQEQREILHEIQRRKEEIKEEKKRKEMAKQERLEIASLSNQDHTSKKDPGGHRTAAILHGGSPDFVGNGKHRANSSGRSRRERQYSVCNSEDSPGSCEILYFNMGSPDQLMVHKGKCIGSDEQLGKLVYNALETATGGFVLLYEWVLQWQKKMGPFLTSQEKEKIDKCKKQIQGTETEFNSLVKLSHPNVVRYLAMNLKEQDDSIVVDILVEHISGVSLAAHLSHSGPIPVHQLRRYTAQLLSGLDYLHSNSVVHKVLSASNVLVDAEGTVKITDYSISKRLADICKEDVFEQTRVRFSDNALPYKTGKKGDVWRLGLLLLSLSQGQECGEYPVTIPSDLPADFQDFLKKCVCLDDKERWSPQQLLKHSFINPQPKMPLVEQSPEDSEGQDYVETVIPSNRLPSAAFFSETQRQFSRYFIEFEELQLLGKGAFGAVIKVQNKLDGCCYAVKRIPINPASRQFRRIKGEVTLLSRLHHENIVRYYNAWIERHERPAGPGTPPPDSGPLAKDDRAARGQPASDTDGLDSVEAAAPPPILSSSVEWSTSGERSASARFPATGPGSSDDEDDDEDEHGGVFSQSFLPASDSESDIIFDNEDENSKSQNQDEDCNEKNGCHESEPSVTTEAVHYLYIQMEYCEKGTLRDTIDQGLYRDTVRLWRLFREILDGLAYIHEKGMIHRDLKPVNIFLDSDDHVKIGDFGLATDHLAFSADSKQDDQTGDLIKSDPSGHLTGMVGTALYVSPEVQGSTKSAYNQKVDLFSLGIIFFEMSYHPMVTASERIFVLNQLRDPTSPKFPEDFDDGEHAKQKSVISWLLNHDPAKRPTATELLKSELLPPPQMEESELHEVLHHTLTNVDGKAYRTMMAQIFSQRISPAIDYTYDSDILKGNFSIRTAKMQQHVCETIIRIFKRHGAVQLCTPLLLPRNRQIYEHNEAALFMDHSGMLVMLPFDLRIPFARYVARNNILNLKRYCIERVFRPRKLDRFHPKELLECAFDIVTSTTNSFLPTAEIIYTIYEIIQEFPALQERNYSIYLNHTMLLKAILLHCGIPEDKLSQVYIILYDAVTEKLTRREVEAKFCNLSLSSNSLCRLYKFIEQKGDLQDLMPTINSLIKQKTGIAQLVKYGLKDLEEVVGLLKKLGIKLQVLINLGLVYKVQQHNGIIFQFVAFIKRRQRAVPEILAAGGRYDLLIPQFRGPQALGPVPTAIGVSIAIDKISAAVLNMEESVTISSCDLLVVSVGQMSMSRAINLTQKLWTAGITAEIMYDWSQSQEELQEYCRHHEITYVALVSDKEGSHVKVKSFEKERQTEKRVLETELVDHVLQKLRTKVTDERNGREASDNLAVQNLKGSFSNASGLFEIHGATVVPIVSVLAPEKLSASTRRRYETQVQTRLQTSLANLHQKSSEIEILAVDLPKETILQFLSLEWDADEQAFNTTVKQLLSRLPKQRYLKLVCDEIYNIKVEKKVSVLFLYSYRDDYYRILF

`CNc1nc(Nc2ccc(C(=O)N3CCC(N4CCOCC4)CC3)c3c2OCO3)nc2[nH]cc(Cl)c12` [Compound 75, (7-((5-chloro-4-(methylamino)-7H-pyrrolo[2,3-d]pyrimidin-2-yl)amino)benzo[d][1,3]dioxol-4-yl)(4-morpholinopiperidin-1-yl)methanone]: the remaining binding at 1 µM in experiment [1] came out at 100%; in experiment [2], 31%; in experiment [3], 25%; in experiment [4], 99%; in experiment [5] it was 73%.

Take `CNc1nc(Nc2ccc(P3(=O)CCN(C4CCOCC4)CC3)cc2OC)nc2[nH]cc(Cl)c12` [Compound 77, 4-(4-((5-chloro-4-(methylamino)-7H-pyrrolo[2,3-d]pyrimidin-2-yl)amino)-3-methoxyphenyl)-1-(tetrahydro-2H-pyran-4-yl)-1,4-azaphosphinane 4-oxide]: the remaining binding at 1 µM in experiment [1] came out at 100%; in experiment [2], 78%; in experiment [3], 86%; in experiment [4] it was 100%; in experiment [5] it was 87%.

For `CNc1nc(Nc2ccc(S(=O)(=O)N3CCC(N4CCOCC4)CC3)cc2OC)nc2[nH]cc(Cl)c12` [Compound 12, 5-chloro-N2-(2-methoxy-4-((4-morpholinopiperidin-1-yl)sulfonyl)phenyl)-N4-methyl-7H-pyrrolo[2,3-d]pyrimidine-2,4-diamine], the remaining binding at 1 µM in experiment [1] worked out at 100%; in experiment [2], 88%; in experiment [3], 77%; in experiment [4], 100%; in experiment [5], 62%.
